Target: human 11β-HSD1 microsome fraction (Homo sapiens, UniProt P28845)
Test: Enzymatic 11beta-HSD1 test (SPA-based detection)
Format: biochemical
Details: human 11β-HSD1 microsomes, [1,2-3H]-cortisone, NADPH, 37° C., 1 hour
Protocol: Enzymatic 11beta-HSD1 Test:
To measure the activity of the compounds, an SPA-based detection method (Solly et al. 2005) was employed. First of all, 20 μl of the human 11β-HSD1 microsome fraction (0.2 μg of protein), prepared in 50 mM HEPES, 0.1% BSA (w/v), were applied to a plate with 384 wells. The test compounds (0.09 μl) were applied to the assay plate in 100% DMSO. The reaction was started by addition of 20 μl of [1,2-^3H]-cortisone (0.1 μCi/[…]) in assay buffer comprising 25 mM HEPES, 100 mM KCl, 5 mM NaCl, 2 mM MgCl2 and 0.25 mM NADPH. The plate was agitated at 37° C. for 1 hour. At the same time, a stop solution comprising 20 mg/ml SPA-PVT beads, 1.6 mg/ml monoclonal cortisol antibody and 0.01 mM SSR110887 (inhibitor from the Biovitrium patent) in 50 mM HEPES, 1 M NaCl and 1 M KCl was stirred at room temperature. To stop the reaction, 25 μl of the stop solution were added to each well. The plate was agitated gently at room temperature for 1 further hour and then centrifuged at 500 gav for 1 minute, in order that the SPA beads could settle out. The plate was then read in a Wallac-1450-Microbeta unit with a standard SPA program (counting time 1 min/well). The comparative compound was glycyrrhetinic acid.
Protein and radioactive substrate were dispensed with a Biomek FX unit (Beckman Coulter) for handling liquids. […]

Chain of human 11β-HSD1 microsome fraction (P28845 whole entry): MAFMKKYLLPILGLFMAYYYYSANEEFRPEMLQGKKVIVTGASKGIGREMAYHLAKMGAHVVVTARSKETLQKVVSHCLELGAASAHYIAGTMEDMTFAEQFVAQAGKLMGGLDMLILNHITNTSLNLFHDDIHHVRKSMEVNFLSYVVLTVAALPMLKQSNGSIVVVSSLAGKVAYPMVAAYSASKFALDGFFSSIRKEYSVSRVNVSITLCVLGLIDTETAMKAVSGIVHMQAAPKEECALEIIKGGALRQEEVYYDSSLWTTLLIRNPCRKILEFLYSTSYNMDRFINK

- IC50: 3 nM
SMILES: CCN1CC(c2ccc(C[C@@H]3C(C)(C)OC(NC45C[C@@H]6C[C@@H](C[C@H]4C6)C5)=NS3(=O)=O)c(F)c2)C1 [Example 6, {(R)-5-[4-(1-Ethyl-azetidin-3-yl)-2-fluoro-benzyl]-6,6-dimethyl-4,4-dioxo-5,6-dihydro-4H-4lambda6-[1,4,3]oxathiazin-2-yl}-(2R,3aS,5S,6aS)-hexahydro-2,5-methano-pentalen-3a-yl-amine]

Source: patent US8809325B2, “Benzyl-oxathiazine derivatives substituted with adamantane and noradamantane, medicaments containing said compounds and use thereof” (SANOFI, priority 2011, dated 2014)
